Reference: patent US8507446B2, “Use of PEDF-derived polypeptides for treating liver cirrhosis” (MacKay Memorial Hospital, priority 2011, dated 2013)

Key:
[1] = tested on: culture-activated primary rat HSCs; experiment: Activation of culture-activated primary hepatic stellate cells; type: cell-based; conditions: for Col1a1 expression (immunoblot) / MCP-1 expression (immunoblot) / amounts of PPARγ (immunoblot) / α-SMA expression (immunoblot): 48 hours vs solvent, 4.5 nM PEDF, 50 nM 34-mer, 50 nM 44-mer; for α-SMA by immunofluorescent staining: 34-mer compared with 44-mer PEDF treatment; for HSC morphology: phase contrast / immunofluorescence
Method: Primary HSCs were isolated by in situ perfusion with collagenase and pronase from livers of male Sprague-Dawley rats (300-450 g), followed by a 25%/50% Percoll gradient centrifugation at 4° C. HSCs were isolated from the upper layer of the discontinuous Percoll density gradient as previously described method (Titos et al., FASEB J 2003 17:1745-1747). Then cells were re-suspended in Dulbecco's modified Eagle's medium (DMEM) supplemented with 10% fetal bovine serum (FBS) and 1% penicillin/streptomycin and plated on 100-mm plastic dishes. Cell purity was verified to be approximately 95-98% by vitamin A fluorescence on day 2 after isolation. HSCs were activated by culturing the cells on plastic for 10 days and then passaged by trypsin-EDTA treatment. Subsequently, the activated HSCs were incubated in 10% FBS-DMEM for 2 days and then used for further experiments.
(§1) Deparaffinized liver tissue sections or 4% paraformaldehyde fixed HSCs were blocked with 10% goat serum and 5% BSA for 1 h. Dual staining was done using primary antibodies against human PEDF (se-59641; Santa Cruz Biotechnology, CA, USA) or α-SMA (ab5694 or ab7817; Abcam), PPARγ (sc-7273; Santa Cruz Biotechnology), albumin (sc-46295; Santa Cruz Biotechnology) or cytokeratin (CK) 18 (GTX112978; GeneTex, Inc.) at 37° C. for 2 h, followed by incubation with the appropriate rhodamine- or FITC-conjugated donkey IgG for 1 hr at room temperature. Nuclei were located by counterstaining with Hoechst 33258 for 7 min. Images were captured using a Zeiss epifluorescence microscope with a CCD camera.
(§2) Cells were scraped into lysis buffer (150 μL/35-mm well) containing 20 mM HEPES (pH 7.4), 1% SDS, 150 mM NaCl, 1 mM EGTA, 5 mM β-glycerophosphate, 10 mM sodium pyrophosphate, 10 mM sodium fluoride, […] sodium orthovanadate, 10 μg/mL leupeptin, and 10 μg/mL aprotinin. The lysate was incubated on ice for 15 min. Total cell lysate was also separated into cytoplasmic and nuclear fractions using the NE-PER nuclear and cytoplasmic extraction kit (Pierce, Rockford, Ill.) according to the manufacturer's instructions. Each cellular fraction was then resolved by SDS-PAGE and then electrotransferred to polyvinylidene difluoride membranes (Millipore, Bedford, Mass.) and processed for immunoblot analysis. Antibodies used in the immunoblot study included human PEDF (sc-59641; Santa Cruz Biotechnology), mouse PEDF (sc-74253; Santa Cruz Biotechnology), type I collagen 1A1 (sc-25974; Santa Cruz Biotechnology), α-SMA (ab5694 or ab7817; Abcam), PPARγ••(sc-7273; Santa Cruz Biotechnology), MCP-1 (ab7202; Abcam Ltd), α-actin (Sigma), epithelial cell adhesion molecule (EpCAM; sc-66020; Santa Cruz Biotechnology), hepatocytes nuclear factor and (HVF)3-β (sc-6554; Santa Cruz Biotechnology). Proteins of interest were detected using the appropriate IgG-HRP secondary antibody and ECL reagent. X-ray films were scanned on a Model GS-700 Imaging Densitometer (Bio-Rad Laboratories, Hercules, Calif.) and analyzed using Labworks 4.0 software. For quantification, blots from at least three independent experiments were used.
After treatment, primary rat HSCs were fixed for 2 h with 4% paraformaldehyde, washed by PBS and then permeabilized for 5 min with 0.1% Triton X-100. Changes in F-actin structures were detected by […] rhodamine-conjugated phalloidin (Sigma) for 1 h at room temperature. Stained F-actin was visualized using a Zeiss Axiovert 25 microscope.
To verify whether the PEDF-derived peptides, particularly, 34-mer PEDF and 44-mer PEDF, may prevent HSCs from activation, culture-activated primary rat HSCs were treated with 4.5 nM PEDF, 50 nM 44-mer, 50 nM 34-mer or PEDF solvent (20 mM Tris/HCl, pH 7.4, 100 mM NaCl) for 48 hours. […] Immunofluorescent assay also confirmed that 34-mer PEDF reduced the levels of α-SMA in culture-activated HSCs as compared with 44-mer PEDF treatment (FIG. 6F). Such result is consistent with the finding in Example 1 that PEDF prevents HSCs from activation by induction of PPARγ.

[2] = tested on: liver-derived progenitor cells (LDPCs); experiment: Self-renewal of LDPCs over two passages and differentiation into hepatocytes; type: cell-based, rat; conditions: for autofluorescence (LDPC marker): 4.5 nM PEDF, 50 nM 34-mer or 50 nM 44-mer; for autofluorescence (LDPC marker) / self-renewal by expression of LDPC markers EpCAM and HNF3-β (immunoblot): two passages, 35 days; for ability of expanded LDPCs to differentiate into hepatocytes (albumin and CK-18 staining): immunofluorescence
Method: (§3) Liver cells from Sprague Dawley rats were harvested by 2-step in situ collagenase perfusion technique. The cells were then washed in phosphate buffered saline and centrifuged (50 g for 5 minutes) twice at room temperature. The cells were not further subjected to any fractionation as previously described (Sahin M B et al., Liver Transpl. 2008 14(3):333-45). Freshly isolated rat liver cells were cultured in a medium consisting of 75% Dulbecco's modified Eagle's medium (DMEM) and 25% MCDB 201 (Sigma-Aldrich) supplemented with 10% fetal bovine serum, 1 mg/mL of bovine serum albumin (BSA; Sigma), 100 μM of β-mercaptoethanol (Gibco, Carlsbad, Calif.), 25 mM of 4-2-hydroxyethyl-1-piperazineethanesulfonic acid (HEPES), 5 mM of Nicotinamide (Sigma-Aldrich), 1% SITE liquid medium (Sigma-Aldrich), and penicillin (100 μg/ml)/streptomycin (100 μg/ml; Invitrogen, Carlsbad, Calif.) on Type I collagen (Sigma, St. Louis, Mo.) coated tissue culture plates or dishes at a density of 1×10^4 cells/cm^2 at 37° C. in 5% CO2.
as §1, §2
It has been reported that LDPCs may not be expanded in conventional basal medium, unless growth factor(s) were added therein (Sahin et al., Liver Transpl. 2008 14(3):333-45). To test the self-renewal property of PEDF derived peptides on LDPCs, liver cells were isolated and grown in separate medium including 4.5 nM (200 ng/ml) PEDF, 50 nM 34-mer or 50 nM 44-mer for two passages, which took a period of 35 days. The newly produced LDPCs in the cultured cells were confirmed by the detection of autofluorescence emitted therefrom; as well as two LDPC markers, which are epithelial cell adhesion molecule (EpCAM) and hepatocytes nuclear factor 3•••(HNF3)-β, by immunoblot analysis. […]

[3] = tested on: liver-derived progenitor cells (LDPCs) in primary rat liver cells; experiment: Clonogenic capacity of liver cells (LDPC colony formation); type: cell-based; conditions: basal medium with 4.5 nM PEDF, 50 nM 34-mer, 50 nM 44-mer or 10% FBS; after 11 days in culture
Method: as §3
To verify the function of 44-mer PEDF, primary rat liver cells were isolated in accordance with steps described above and cultivated (about 1×10^5 per well of 6-well plate; 1×10^4 cells/cm^2) in a conventional basal medium, which was further supplemented with 4.5 nM PEDF, 50 nM 34-mer PEDF, 50 nM 44-mer PEDF or 10% FBS. Medium was changed every 3 days. After being placed in culture for 11 days, clonogenic capacity of liver cells was continuously monitored by phase-contrast microscopy. During this time period, liver-derived progenitor cells (LDPCs) began markedly emerged in primary liver cultures while hepatocytes started dying out. Few colonies were formed by liver cells when continuously cultivated in basal medium, or medium supplemented with 34-mer or FBS.

HSC-T6 cells = experiment: PPARγ induction and PPARγ siRNA reversal in HSC-T6 cells; type: cell-based, rat
Method: HSC-T6 cells, a rat immortalized HSC, retained all features of activated HSCs and was kindly provided by Dr. Friedman S L (Kim et al., J Biol Chem 1998 273:33750-33758). HSC-T6 cells were grown in Waymouth medium supplemented with 10% FBS at 37° C. in a humidified atmosphere of 5% CO2.
The total RNA was extracted from cells using the TRIzol (Invitrogen, Carlsbad, Calif.). […] The intensities of the PCR products were quantified using a FUJI LAS-3000 densitometer and Multi Gauge Ver. […]
Cells were scraped into lysis buffer (150 μL/35-mm well) containing 20 mM HEPES (pH 7.4), 1% SDS, 150 mM NaCl, 1 mM EGTA, 5 mM β-glycerophosphate, 10 mM sodium pyrophosphate, 10 mM sodium fluoride, […] sodium orthovanadate, 10 μg/mL leupeptin, and 10 μg/mL aprotinin. […] Proteins of interest were detected using the appropriate IgG-HRP secondary antibody and ECL reagent. X-ray films were scanned on a Model GS-700 Imaging Densitometer (Bio-Rad Laboratories, Hercules, Calif.) and analyzed using Labworks 4.0 software. For quantification, blots from at least three independent experiments were used. […]

Q: With “Ac-VLLSPLSVATALSALSLGAEQRTESIIHRALTTDLISSPDIHGT-NH2 [44-mer PEDF]” as the molecule, how does the “Col1a1 expression (immunoblot)” value [1] read?
A: Its value is “does not possess such effects”.

Q: What about the “MCP-1 expression (immunoblot)” value [1] of the same molecule?
A: The value was “does not possess such effects”.

Q: What about the “amounts of PPARγ (immunoblot)” value [1] of the same molecule?
A: The value was “does not possess such effects”.

Q: What about the “α-SMA expression (immunoblot)” value [1] of the same molecule?
A: The value was “does not possess such effects”.

Q: And the “autofluorescence (LDPC marker)” value [2]?
A: The value was “emitted autofluorescence”.

Q: What about the “ability of expanded LDPCs to differentiate into hepatocytes (albumin and CK-18 staining)” value [2] of the same molecule?
A: Its value is “retain the ability of differentiating into hepatocyte”.

Q: And the “self-renewal by expression of LDPC markers EpCAM and HNF3-β (immunoblot)” value [2]?
A: Its value is “exhibits self-renewal property”.

Q: And the “colonies of LDPCs formed” value [3]?
A: The value was “dense colonies”.

Q: With “PPARγ siRNA: rat PPARγ siRNA (SEQ ID NO: 7/8) or a mixture of four rat PPARγ siRNAs (SMART-pools) (chain 1 CACCAUUUGUCAUCUACGATT; chain 2 UCGUAGAUGACAAAUGGUGTT; chemistry not given here) [reference compound]” as the molecule, how does the “suppressive effects of PEDF on HSC activation (α-SMA, Col1a1, MCP-1)” value (HSC-T6 cells; siRNA pretreatment 16 hours before PEDF, 10 nM siRNA) read?
A: The value was “significantly reduced the suppressive effects of PEDF”.

Q: What does the source list for “34-mer PEDF: synthetic human peptide, the segment of PEDF from amino acid residues 44 to 77 (Ac-DPFFKVPVNKLAAAVSNFGYDLYRVRSSTSPTTN-NH2)”?
A: Col1a1 expression (immunoblot) [1]: reduced; MCP-1 expression (immunoblot) [1]: reduced; amounts of PPARγ (immunoblot) [1]: enhanced; α-SMA expression (immunoblot) [1]: reduced; α-SMA by immunofluorescent staining ([1]; culture-activated HSCs): reduced; HSC morphology ([1]; culture-activated HSCs): causes reversal of the activated HSC morphology; autofluorescence (LDPC marker) [2]: very little autofluorescence or none at all; colonies of LDPCs formed [3]: Few colonies

B1: pigment-epithelium-derived factor (protein, UniProt P36955 20-418, looked up)
Pigment epithelium-derived …: QNPASPPEEGSPDPDSTGALVEEEDPFFKVPVNKLAAAVSNFGYDLYRVRSSTSPTTNVLLSPLSVATALSALSLGAEQRTESIIHRALYYDLISSPDIHGTYKELLDTVTAPQKNLKSASRIVFEKKLRIKSSFVAPLEKSYGTRPRVLTGNPRLDLQEINNWVQAQMKGKLARSTKEIPDEISILLLGVAHFKGQWVTKFDSRKTSLEDFYLDEERTVRVPMMSDPKAVLRYGLDSDLSCKIAQLPLTGSMSIIFFLPLKVTQNLTLIEESLTSEFIHDIDRELKTVQAVLTVPKLKLSYEGEVTKSLQEMKLQSLFDSPDFSKITGKPIKLTQVEHRAGFEWNEDGAGTTPSPGLQPAHLTFPLDYHLNQPFIFVLRDTDTGALLFIGKILDPRGP
notes: pigment-epithelium-derived factor protein, used at 4.5 nM (200 ng/ml)
Q: For B1, which “mRNA and protein expression of PPARγ” value (HSC-T6 cells; 48 hours, RT-PCR and immunoblot) is on record?
A: Its value is “induced”.

Q: And the “Col1a1 expression (immunoblot)” value [1]?
A: The value was “significantly reduced”.

Q: What about the “MCP-1 expression (immunoblot)” value [1] of the same molecule?
A: The value was “significantly reduced”.

Q: And the “amounts of PPARγ (immunoblot)” value [1]?
A: Its value is “enhanced”.

Q: And the “α-SMA expression (immunoblot)” value [1]?
A: The value was “significantly reduced”.

Q: And the “stress fiber (F-actin, rhodamine-phalloidin staining)” value ([1]; culture-activated HSCs)?
A: The value was “reduced”.

Q: And the “α-SMA by immunofluorescent staining” value ([1]; culture-activated HSCs)?
A: Its value is “reduced”.

Q: What about the HSC morphology ([1]; culture-activated HSCs) of the same molecule?
A: Its HSC morphology is “dendritic-like morphology with retracted cytoplasm”.

Q: What about the “autofluorescence (LDPC marker)” value [2] of the same molecule?
A: Its value is “emitted autofluorescence”.

Q: And the “ability of expanded LDPCs to differentiate into hepatocytes (albumin and CK-18 staining)” value [2]?
A: The value was “retain the ability of differentiating into hepatocyte”.

Q: And the “self-renewal by expression of LDPC markers EpCAM and HNF3-β (immunoblot)” value [2]?
A: The value was “exhibits self-renewal property”.

Q: And the “colonies of LDPCs formed” value [3]?
A: The value was “dense colonies”.
